Laboratory results taken from patent publication US11833149B2, “Pulse dosing regimen and methods of treatment” (OSI Pharmaceuticals, LLC, priority 2016, dated 2023).
Entries after “also recorded” stand apart in the source; their conditions may differ.

Assays:
[1] = cited from earlier work
brain metastases = assay: Phase 1 study of pulse-continuous erlotinib: central nervous system activity; type: in vivo, patients
Excerpt: (§1) The study was registered at clinicaltrials.gov (NCT01967095). […] All patients provided written informed consent.
Central nervous system activity: A brain MRI was required at enrollment.

[2] = Phase 1 study: pharmacokinetic analysis of plasma (LC-MS/MS); type: in vivo, patients
Description: Pharmacokinetic analysis: Whole-blood samples for plasma were collected at prescheduled time points for pharmacokinetic (PK) analysis. Plasma levels of erlotinib were determined using a validated liquid chromatography-tandem mass spectrometry assay. […] MS detection was using an AB SCIEX API 4000 triple quadrupole mass spectrometer operating in positive ion electrospray ionization (ESI) mode. Standard PK parameters were calculated using a noncompartmental method (WiNNonlin, Pharsight).

[3] = cited from earlier work; remark: listed apart in the source
EGFR-mutant lung cancers = assay: Phase 1 study of pulse-continuous erlotinib: response (RECIST 1.1) and progression-free survival; type: in vivo, patients
Description: as §1
Prior cytotoxic chemotherapy was allowed. Patients were required to have measurable disease per RECIST (Response Evaluation Criteria in Solid Tumours), version 1.1). […] Patients with clinically stable brain metastases, either treated or untreated, were eligible.
Response assessments: Response to therapy was assessed by interval imaging every 6 weeks with a CT scan with response evaluated per RECIST 1.1. After six cycles on treatment, patients could reduce the radiographic assessments to every 4 cycles (12 weeks).
Statistical Analysis: Descriptive statistics were used to summarize the clinical characteristics of the patients. Progression-free survival was estimated using the Kaplan-Meier method, and defined as the time from start of study therapy until progression or death. […] Response rates were calculated using binomial proportions and exact 95% CIs. All statistical analyses were performed using R 3.2.2 (R Development Core Team) including the “survival” and “Hmisc” packages.

[4] = system: EGFR-mutant lung cancers with CNS involvement; conditions: median dose erlotinib 1500 mg once weekly (Grommes et al.); cited from earlier work
[5] = in vivo
Description: (§2) Toxicity assessments: Patients were assessed five times during cycle 1 (28 days) and then every 21 days thereafter. Patient history, physical examination, complete blood count and serum chemistries were performed at each visit. Toxicity was graded according to the National Cancer Institute Common Terminology Criteria for Adverse Events (NCI CTCAE), version 4.

[6] = Phase 1 dose-escalation study of pulse-continuous erlotinib: DLT, MTD, adverse events
Description: as §2

[7] = erlotinib 1500 mg once weekly (Clarke et al.)

SMILES: C#Cc1cccc(Nc2ncnc3cc(OCCOC)c(OCCOC)cc23)c1 [erlotinib, N-(3-ethynylphenyl)-6,7-bis(2-methoxyethoxy)-4-quinazolinamine]
- maximum tolerated dose (MTD) ([1]; once weekly, unselected patients with advanced lung cancers (Milton et al.), MTD not reached): ≥ 2000 mg
- MTD ([1]; twice-weekly pulse dose (Chia et al.), DLT of rash at higher dose levels): 1000 mg
- patients with evidence of tumor regression in the CNS (brain metastases; 6 patients with untreated brain metastases): 6
- radiographic evidence of new or progressing brain metastases (brain metastases; 16 patients with CNS imaging within three months of coming off study for progression): none
- CNS progression on study treatment (brain metastases; all patients): none of the patients; also recorded: No patients
- change of peak plasma concentration with increasing pulse doses ([2]; 600 mg to 1,350 mg, Cycle 1): no significant increases
- range of peak plasma concentration ([2]; 4 hr post-administration, Week 2): 2,600-9355 ng/mL
- median peak plasma concentration ([2]; 4 hr post-administration, after the second day of weekly pulse dose at Week 2): 5,393 ng/mL
- median plasma trough concentration ([2]; before the pulse dosing at the start of week 4): 435 ng/mL
- median plasma trough concentration ([2]; start of week 4): 1.1 µM
- range of plasma trough concentration ([2]; start of week 4): 29 to 1655 ng/mL
- cerebrospinal fluid (CSF) concentration as % of plasma concentration ([3]; Togashi et al.): 3-5%
- concurrent CSF concentration [3, 7]: 120 nM
- peak plasma concentration [3, 7]: 11,300 nM
- patients with complete response (EGFR-mutant lung cancers; 34 patients): one
- patients with confirmed partial responses (EGFR-mutant lung cancers; 34 patients): Twenty-four
- median progression-free survival (EGFR-mutant lung cancers; 95% CI 5.8-15.4 months): 9.9 months
- overall response rate (EGFR-mutant lung cancers; intent to treat, 34 patients, 95% CI 60-84%): 74%
- change in the sum of target lesions (EGFR-mutant lung cancers; patients with radiographic assessment): All patients had a decrease
- patients with partial response in the CNS [4]: Six of nine
- ALT elevated Grade 1 (% of patients) ([5]; human): (18%)
- ALT elevated Grade 1 (patients) ([5]; human): 6
- ALT elevated Grade 2 (% of patients) ([5]; human): (3%)
- ALT elevated Grade 2 (patients) ([5]; human): 1
- ALT elevated Grade 3 (% of patients) ([5]; human): (3%)
- ALT elevated Grade 3 (patients) ([5]; human): 1
- ALT elevated Grade 4 (patients) ([5]; human): 0
- ALT elevated Total (any grade) (% of patients) ([5]; human): (24%)
- ALT elevated Total (any grade) (patients) ([5]; human): 8
- AST increased Grade 1 (% of patients) ([5]; human): (15%)
- AST increased Grade 1 (patients) ([5]; human): 5
- AST increased Grade 2 (% of patients) ([5]; human): (3%)
- AST increased Grade 2 (patients) ([5]; human): 1
- AST increased Grade 3 (patients) ([5]; human): 0
- AST increased Grade 4 (patients) ([5]; human): 0
- AST increased Total (any grade) (% of patients) ([5]; human): (18%)
- AST increased Total (any grade) (patients) ([5]; human): 6
- Alopecia Grade 1 (% of patients) ([5]; human): (21%)
- Alopecia Grade 1 (patients) ([5]; human): 7
- Alopecia Grade 2 (patients) ([5]; human): 0
- Alopecia Grade 3 (patients) ([5]; human): 0
- Alopecia Grade 4 (patients) ([5]; human): 0
- Alopecia Total (any grade) (% of patients) ([5]; human): (21%)
- Alopecia Total (any grade) (patients) ([5]; human): 7
- Anemia Grade 1 (% of patients) ([5]; human): (6%)
- Anemia Grade 1 (patients) ([5]; human): 2
- Anemia Grade 2 (% of patients) ([5]; human): (3%)
- Anemia Grade 2 (patients) ([5]; human): 1
- Anemia Grade 3 (% of patients) ([5]; human): (3%)
- Anemia Grade 3 (patients) ([5]; human): 1
- Anemia Grade 4 (patients) ([5]; human): 0
- Anemia Total (any grade) (% of patients) ([5]; human): (12%)
- Anemia Total (any grade) (patients) ([5]; human): 4
- Anorexia Grade 1 (% of patients) ([5]; human): (9%)
- Anorexia Grade 1 (patients) ([5]; human): 3
- Anorexia Grade 2 (% of patients) ([5]; human): (6%)
- Anorexia Grade 2 (patients) ([5]; human): 2
- Anorexia Grade 3 (patients) ([5]; human): 0
- Anorexia Grade 4 (patients) ([5]; human): 0
- Anorexia Total (any grade) (% of patients) ([5]; human): (15%)
- Anorexia Total (any grade) (patients) ([5]; human): 5
- Bilirubin increased Grade 1 (% of patients) ([5]; human): (12%)
- Bilirubin increased Grade 1 (patients) ([5]; human): 4
- Bilirubin increased Grade 2 (% of patients) ([5]; human): (15%)
- Bilirubin increased Grade 2 (patients) ([5]; human): 5
- Bilirubin increased Grade 3 (% of patients) ([5]; human): (6%)
- Bilirubin increased Grade 3 (patients) ([5]; human): 2
- Bilirubin increased Grade 4 (patients) ([5]; human): 0
- Bilirubin increased Total (any grade) (% of patients) ([5]; human): (32%)
- Bilirubin increased Total (any grade) (patients) ([5]; human): 11
- Diarrhea Grade 1 (% of patients) ([5]; human): (71%)
- Diarrhea Grade 1 (patients) ([5]; human): 24
- Diarrhea Grade 2 (% of patients) ([5]; human): (3%)
- Diarrhea Grade 2 (patients) ([5]; human): 1
- Diarrhea Grade 3 (% of patients) ([5]; human): (12%)
- Diarrhea Grade 3 (patients) ([5]; human): 4
- Diarrhea Grade 4 (patients) ([5]; human): 0
- Diarrhea Total (any grade) (% of patients) ([5]; human): (85%)
- Diarrhea Total (any grade) (patients) ([5]; human): 29
- Dry skin Grade 1 (% of patients) ([5]; human): (29%)
- Dry skin Grade 1 (patients) ([5]; human): 10
- Dry skin Grade 2 (patients) ([5]; human): 0
- Dry skin Grade 3 (patients) ([5]; human): 0
- Dry skin Grade 4 (patients) ([5]; human): 0
- Dry skin Total (any grade) (% of patients) ([5]; human): (29%)
- Dry skin Total (any grade) (patients) ([5]; human): 10
- Fatigue Grade 1 (% of patients) ([5]; human): (24%)
- Fatigue Grade 1 (patients) ([5]; human): 8
- Fatigue Grade 2 (% of patients) ([5]; human): (12%)
- Fatigue Grade 2 (patients) ([5]; human): 4
- Fatigue Grade 3 (patients) ([5]; human): 0
- Fatigue Grade 4 (patients) ([5]; human): 0
- Fatigue Total (any grade) (% of patients) ([5]; human): (35%)
- Fatigue Total (any grade) (patients) ([5]; human): 12
- Mucositis Grade 1 (% of patients) ([5]; human): (24%)
- Mucositis Grade 1 (patients) ([5]; human): 8
- Mucositis Grade 2 (% of patients) ([5]; human): (9%)
- Mucositis Grade 2 (patients) ([5]; human): 3
- Mucositis Grade 3 (% of patients) ([5]; human): (3%)
- Mucositis Grade 3 (patients) ([5]; human): 1
- Mucositis Grade 4 (patients) ([5]; human): 0
- Mucositis Total (any grade) (% of patients) ([5]; human): (35%)
- Mucositis Total (any grade) (patients) ([5]; human): 12
- Nausea Grade 1 (% of patients) ([5]; human): (29%)
- Nausea Grade 1 (patients) ([5]; human): 10
- Nausea Grade 2 (% of patients) ([5]; human): (9%)
- Nausea Grade 2 (patients) ([5]; human): 3
- Nausea Grade 3 (% of patients) ([5]; human): (6%)
- Nausea Grade 3 (patients) ([5]; human): 2
- Nausea Grade 4 (patients) ([5]; human): 0
- Nausea Total (any grade) (% of patients) ([5]; human): (44%)
- Nausea Total (any grade) (patients) ([5]; human): 15
- Paronychia Grade 1 (% of patients) ([5]; human): (12%)
- Paronychia Grade 1 (patients) ([5]; human): 4
- Paronychia Grade 2 (% of patients) ([5]; human): (6%)
- Paronychia Grade 2 (patients) ([5]; human): 2
- Paronychia Grade 3 (patients) ([5]; human): 0
- Paronychia Grade 4 (patients) ([5]; human): 0
- Paronychia Total (any grade) (% of patients) ([5]; human): (18%)
- Paronychia Total (any grade) (patients) ([5]; human): 6
- Pruritis Grade 1 (% of patients) ([5]; human): (32%)
- Pruritis Grade 1 (patients) ([5]; human): 11
- Pruritis Grade 2 (patients) ([5]; human): 0
- Pruritis Grade 3 (patients) ([5]; human): 0
- Pruritis Grade 4 (patients) ([5]; human): 0
- Pruritis Total (any grade) (% of patients) ([5]; human): (32%)
- Pruritis Total (any grade) (patients) ([5]; human): 11
- Rash Grade 1 (% of patients) ([5]; human): (62%)
- Rash Grade 1 (patients) ([5]; human): 21
- Rash Grade 2 (% of patients) ([5]; human): (24%)
- Rash Grade 2 (patients) ([5]; human): 8
- Rash Grade 3 (% of patients) ([5]; human): (3%)
- Rash Grade 3 (patients) ([5]; human): 1
- Rash Grade 4 (patients) ([5]; human): 0
- Rash Total (any grade) (% of patients) ([5]; human): (88%)
- Rash Total (any grade) (patients) ([5]; human): 30
- Vomiting Grade 1 (% of patients) ([5]; human): (26%)
- Vomiting Grade 1 (patients) ([5]; human): 9
- Vomiting Grade 2 (% of patients) ([5]; human): (3%)
- Vomiting Grade 2 (patients) ([5]; human): 1
- Vomiting Grade 3 (% of patients) ([5]; human): (3%)
- Vomiting Grade 3 (patients) ([5]; human): 1
- Vomiting Grade 4 (patients) ([5]; human): 0
- Vomiting Total (any grade) (% of patients) ([5]; human): (32%)
- Vomiting Total (any grade) (patients) ([5]; human): 11
- patients removed for diarrhea ([5]; human): 2
- patients removed for hyperbilirubinemia ([5]; human): 1
- patients removed for mucositis ([5]; human): 1
- patients removed for possible pneumonitis ([5]; human): 1
- patients removed for transaminitis ([5]; human): 1
- patients removed from the study for toxicity [5]: Six
- patients requiring a dose reduction of the pulse dose [5]: three of sixteen
- tolerability [5]: well tolerated
- deaths on study ([6]; all 34 patients): no deaths
- grade four or five toxicities ([6]; all 34 patients): No grade four or five toxicities
- MTD (pulse dose) ([6]; pulse on days 1 and 2 with 50 mg erlotinib on days 3 to 7): 1200 mg
